Reference: US5648359A, “Tumor necrosis factor production inhibitors” (Sumitomo Pharmaceuticals Company, Limited, priority 1993, dated 1997)

Legend:
[1] = test system: TNF production or secretion in mouse peritoneal macrophages; experiment: Inhibitory effect on TNF production or secretion in mouse peritoneal macrophages (30 μM); assay type: cell-based, mouse (BALB/c); settings: 30 μM compound, LPS 10 μg/ml, 18 hours, TNF by L929 bioassay; for inhibition at 30 µM: Mus musculus
Description: Inhibitory effect on TNF production or secretion in mouse peritoneal macrophages (In case drug concentration is 30 μM)
(§1) BALB/c mice (5 weeks old, female, Charles River Japan) were intraperitoneally injected with 1 ml of 3% thioglycollate broth. After 4 days, the mice were sacrificed. Peritoneal exudated cells (PECs) were collected from the peritoneal cavity by washing with minimum essential medium (hereinafter abbreviated as MEM, manufactured by Handai Biseibutubyo Kenkyukai, Osaka, Japan) containing 5 U/ml heparin and 1% fetal bovine serum (FBS, manufactured by GIBCO Laboratories Inc.). PECs were washed three times with MEM, suspended with MEM containing 10% FBS. After the viable cells were counted by exclusion of trypan blue dye, the suspension was adjusted at the final concentration of 2×10^6 cells/ml with MEM containing 10% FBS and seeded into a 96-well microplate (Costar, Cambridge, Mass., USA) at 2×10^5 cells/100 μl/well. The PECs were incubated for an hour at 37° C. in a humidified 5% CO2 incubator, and were washed twice with MEM warmed at 37° C. to remove non-adherent cells. Residual adherent cells were used as peritoneal macrophages. After the washing above, 50 μl each/well of MEM containing 10% FBS was added to each well and provided for use in the following experiment.
(§2) The powdery compound of the present invention was dissolved in dimethylsulfoxide in a concentration of 30 mM. The solution was then diluted with MEM containing 10% FBS in the final concentration of 30 μM. In the peritoneal macrophages obtained above, 50 μl each of the dilution was added to each well to make the total volume 100 μl. Thereafter 100 μl each of lipopolysaccharide (hereinafter abbreviated as LPS, E. coli 0111B4, manufactured by DIFCO, USA) was added to each well in the final concentration of 10 μg/ml. After the cells were incubated at 37° C. for 18 hours in a humidified 5% CO2 incubator, 25 μl of the supernatant in each well was collected.
(§3) The TNF activity in the supernatant collected was determined by bioassay using TNF-sensitive mouse fibroblast cell line L929 cells. That is, 100 μl each of MEM containing 10% FBS was added to each well of a 96-well microplate; using the resulting mixture, 25 μl of the collected supernatant was diluted to 5-fold dilution to final concentrations (concentrations after the following addition of L929 cell suspension) of 10%, 2%, 0.4% and 0.08%.
(§4) L929 cells were then suspended (4×10^5 cells/ml) in MEM containing 10% FBS and 1 μg/ml actinomycin D (Sigma Co.) and 100 μl each of the suspension was added to each well of the above microplate at 4×10^4 cells/well and cultured at 37° C. in a humidified 50% CO2. The viable cells were counted by partial modification of the MTT method reported in Monosann et al., T., J. Immunol. Method, 65, 55-63, 1983. The modified MTT method comprises the following steps. One mg/ml of 3-(4,5-dimethylthiazol-2-yl)-2,5-diphenyltetrazolium bromide (hereinafter abbreviated as MTT, manufactured by Sigma Co.) was dissolved in MEM, and 50 μl each of the solution was added to each well of the microplate above. After incubating the microplate for further 6 hours, the supernatant was discarded and 100 μl of 0.004N HCl-isopropyl alcohol and then 10 μl of 0.01% sodium laurylsulfate aqueous solution was added to each well. After shaking the 96-well microplate for a few minutes, the absorbance in each well was measured with a microplate reader (Corona Co.) at an absorption wavelength of 550 nm. The absorbance correlated to the count of the viable L929 cells and represented the TNF activity in the supernatant. The TNF activity was determined in terms of unit (U)/ml from the calibration curve of absorbance for the TNF activity obtained using mouse recombinant TNF α (TNF-M, manufactured by Genzyme Co.) as a standard. The activity of inhibiting TNF production of each compound, was determined by the following equation.
Inhibition of TNF production or secretion (%)=(1-TNF activity in the […]

[2] = test system: TNF production in mouse peritoneal macrophages; experiment: Inhibitory effect on TNF production in mouse peritoneal macrophages (50 μM and 100 μM); assay type: cell-based, mouse (BALB/c); settings: Peritoneal macrophage, read-out: Inhibition of TNF Production or secretion; for inhibition at 100 µM: 100 μM compound; for inhibition at 50 µM: 50 μM compound
Description: as §1
as §2, with “The solution was then diluted with MEM containing 10% FBS in the final concentration of 30 μM.” left out
as §3
as §4, with “After incubating the microplate for further 6 hours, the supernatant was discarded and 100 μl of 0.004N HCl-isopropyl alcohol and then 10 μl of 0.01% sodium laurylsulfate aqueous solution was added to each well.” left out, “equation. […]” for “equation.”

endotoxin-shocked mice = settings: mouse, in vivo; cited from earlier work
HIV-1 = settings: cited from earlier work
cancer patients = settings: human, in vivo; cited from earlier work
[3] = test system: experimental allergic encephalomyelitis induced on an animal model; settings: cited from earlier work
TNF = settings: cited from earlier work

| Molecule | inhibition at 30 µM [1] [%] | inhibition at 100 µM [2] [%] | Inhibition of TNF Production or Secretion [1] [%] | other results |
| --- | --- | --- | --- | --- |
| CCCCCC(=O)N1C2Cc3cc4c(cc3C1Cc1cc3c(cc12)OCO3)OCO4 [Example 19] | 16 | 51 | – | – |
| CCCN1C2Cc3cc4c(cc3C1Cc1cc3c(cc12)OCO3)OCO4 [Example 29] | 31 | 81 | – | – |
| CCCCN1C2Cc3cc4c(cc3C1Cc1cc3c(cc12)OCO3)OCO4 [Example 30] | -37 | 78 | – | inhibition at 50 µM [2]: 41% |
| NCCCN1C2Cc3cc4c(cc3C1Cc1cc3c(cc12)OCO3)OCO4 [Example 49, 15-(3-aminopropyl)-5,6,12,13-tetrahydrocycloocta[1,2-f:5,6-f']bis[1,S]benzodioxol-5,12-imine] | -4 | – | – | inhibition at 50 µM [2]: 21% |
| NCCCC(=O)N1C2Cc3cc4c(cc3C1Cc1cc3c(cc12)OCO3)OCO4 [Example 54, 15-(4-aminobutyryl)-5,6,12,13-tetrahydrocycloocta[1,2-f:5,6-f']bis[1,3]benzodioxol-5,12-imine] | 35 | – | – | – |
| CC(=O)CCCCn1c(=O)c2c(ncn2C)n(C)c1=O [Pentoxifylline] | – | – | – | prevention of death in endotoxin-shocked mice (endotoxin-shocked mice): activity of preventing death in endotoxin-shocked mice; prevention of HIV-1 replication (HIV-1): activity of preventing HIV-1 replication; sense of well-being / weight loss in cancer patients (cancer patients): activity of improving the sense of well-being or preventing a weight loss in cancer patients; prevention of experimental allergic encephalomyelitis [3]: activity of preventing experimental allergic encephalomyelitis induced on an animal model; TNF inhibitory activity (TNF): showing an activity of inhibiting TNF |
| isomeric mixture of 16-acetyl-2-aminomethyl-6,7,13,14-tetrahydro-[1,3]benzodioxolo[5,6-f]cycloocta[1,2-g]-1,4-benzodioxan-6,13-imine and 16-acetyl-3-aminomethyl-6,7,13,14-tetrahydro-[1,3]benzodioxolo[5,6-f]cycloocta[1,2-g]-1,4-benzodioxan-6,13-imine [Example 9] | – | – | 69 | – |
| mixture of 16-acetyl-6,7,13,14-tetrahydro-2-hydroxymethyl[1,3]benzodioxolo[5,6-f]cycloocta[1,2-g]-1,4-benzodioxan-6,13-imine and 16-acetyl-6,7,13,14-tetrahydro-3-hydroxymethyl[1,3]benzodioxolo[5,6-f]cycloocta[1,2-g]-1,4-benzodioxan-6,13-imine [Example 8] | – | – | 86 | – |
| mixture of 17-acetyl-2-ethoxycarbonyl-6,7,14,15-tetrahydrocycloocta-[1,2-g:5,6-g']bis[1,4]-benzodioxan-6,14-imine and 17-acetyl-3-ethoxycarbonyl-6,7,14,15-tetrahydrocycloocta[1,2-g:5,6-g']bis[1,4]benzodioxan-6,14-imine [Example 6] | – | – | 89 | – |
| mixture of 17-acetyl-6,7,14,15-tetrahydro-2-hydroxymethylcycloocta[1,2-g:5,6-g']bis[1,4]benzodioxan-6,14-imine and 17-acetyl-6,7,14,15-tetrahydro-3-hydroxymethylcycloocta[1,2-g: 5,6-g']bis[1,4]benzodioxan-6,14-imine [Example 7] | – | – | 65 | – |
